Paper PMC3871589, “Evaluation of STAT3 Signaling in ALDH+ and ALDH+/CD44+/CD24− Subpopulations of Breast Cancer Cells” (PLoS ONE, 2013)

Experiments:
Format in all cases: cell-based, human
[1] = system: STAT3 phosphorylation (Y705); assay: Western blot of STAT3 phosphorylation in ALDH+ cells; conditions: LLL12 5 µmol/L or Stattic 10 µmol/L 24 hours, ShRNA 48 hours then puromycin
Protocol: (§1) The ALDEFLUOR kit (StemCell Technologies) was used to isolate the population with high ALDH enzymatic activity as previously described. Briefly, cells were trypsinized to single cells using 0.05% trypsin and subsequently suspended in ALDEFLUOR assay buffer containing ALDH substrate (BAAA, 1 µmol/l per 1×10^6 cells) and then incubated for 40 minutes at 37°C. For each sample, an aliquot of cells was stained under identical conditions with 15 mmol/L diethylaminobenzaldehyde (DEAB), a specific ALDH inhibitor, as an ALDH^− control. Anti-human PE-CD24 and PE-Cy5-CD44 antibody (BioLegend) were used for CD44/CD24 identification and to separate ALDH^+/CD44^+/CD24^− and ALDH^−/CD44^+/CD24^+ cells when combined with ALDH staining. Analysis was performed using a FACStarPLUS (Becton Dickinion) flow cytometer. To assess the effect of STAT3 inhibitors on the subpopulation of ALDH^+ cells, un-separated breast cancer cells were treated with 5 µmol/L of LLL12 or 10 µmol/L Stattic for 24 hours prior to performing the ALDEFLUOR assay.
After sorting by flow cytometry, ALDH^+ and ALDH^+/CD44^+/CD24^− stem-like cells were cultured in serum-free stem cell medium in ultra-low attachment six-well plates (Corning) to maintain cancer stem cell characteristics. […]

ERK1/2 phosphorylation = ERK1/2 phosphorylation in ALDH+ cells; conditions: ALDH+ breast cancer stem-like cells; 10 µmol/L, 24 hours
Protocol: After sorting by flow cytometry, ALDH^+ and ALDH^+/CD44^+/CD24^− stem-like cells were cultured in serum-free stem cell medium in ultra-low attachment six-well plates (Corning) to maintain cancer stem cell characteristics. ALDH^−, ALDH^−/CD44^+/CD24^+cells and un-separated cells were cultured in regular medium and replaced with identical stem cell medium for three days before being harvested. To assess the effects of STAT3 inhibitors, ALDH^+ and ALDH^+/CD44^+/CD24^− subpopulations of breast cancer cells were treated with LLL12 (5 µmol/L) of or static (10 µmol/L) for 24 hours. STAT3, or control GFP shRNA lentivirus (CTL ShRNA) was introduced into ALDH^+ breast cancer stem-like cells for 48 hours, then followed by selection with puromycin (0.2 µg/ml) for 72 hours. Antibodies (Cell Signaling Tech.) against phospho-specific STAT3 (Tyrosine 705) (P-STAT3, Y705), ERK1/2 (Threonine 202/Tyrosine 204), cleaved Poly (ADP-ribose) polymerase (PARP), ALDH1, cleaved caspase-3, and GAPDH were used for western blots.

[2] = system: ALDH+ subpopulation in MDA-MB-231, SUM159, and SK-BR3 cancer cells; assay: ALDEFLUOR assay, percentage of ALDH+ subpopulation; conditions: un-separated MDA-MB-231, SUM159, SK-BR3; LLL12 5 µmol/L or Stattic 10 µM, 24 hours
Protocol: as §1

[3] = system: ALDH+ subpopulation from MDA-MB-231, SUM159, and SK-BR3 cells; assay: MTT cell viability assay, ALDH+ subpopulation; conditions: 1 to 10 µmol/L 72 hours, ShRNA 48 hours
Protocol: (§2) The breast cancer cells were seeded in 96-well plates (3,000 cells/well) in triplicates in a serum-free mammary epithelial basal medium. The following day, cancer cells were treated with 1 to 10 µmol/L of LLL12 or Stattic for 72 hours, STAT3 ShRNA or control GFP shRNA lentivirus (CTL ShRNA) for 48 hours. MTT (Thiazolyl Blue Tetrazolium Bromide, Sigma-Aldrich) assay was used to determine the cell viability.

ALDH− cells = assay: MTT cell viability assay, ALDH− subpopulation; conditions: Figure S4
Protocol: as §2

[4] = system: ALDH+ subpopulations of SK-BR-3, MDA-MB-231, and SUM159; assay: Tumorsphere formation, ALDH+ subpopulations; conditions: 2.5–10 µmol/L, 10 to 15 days
Protocol: ALDH^+ and ALDH^+/CD44^+/CD24^− cells were plated as single cells in ultra-low attachment six-well plates at a density of 250, 500, 1000 or 50,000 viable cells/well as previously described. On the second day after seeding, the ALDH^+ cancer cells were treated with 2.5–10 µmol/L of LLL12 or Stattic. For tumorsphere forming capacity assay, ALDH^+ or ALDH^− cells were plated as single cells in ultra-low attachment six-well plates at a density of 250, 500 or 1000 viable cells/well. Tumorsphere growth was observed under a microscope 10 to 15 days later.

O=[N+]([O-])c1ccc2c(c1)S(=O)(=O)C=C2 [Stattic, reference compound]
STAT3 phosphorylation in ALDH+ cells [1]: reduced | ERK1/2 phosphorylation (ERK1/2 phosphorylation): not | ALDH+ subpopulation (percentage) [2]: decreased | cell viability of the ALDH+ subpopulation [3]: inhibit | effects against the ALDH− cells (cell viability) (ALDH− cells): some inhibitory effects | tumorsphere formation [4]: suppress
